# Assay results: patent US5510356A, “Bisquinolines and processes for their production and use to treat malaria” (priority 1991, dated 1996)
# Entries after “also recorded” stand apart in the source; their conditions may differ.
# Key:
# P. berghei = conditions: cited from earlier work
# CQ-resistant malaria = conditions: cited from earlier work; for activity against malaria / CQ-resistant malaria (in words): literature; for duration of action / toxicity: compared to CQ, Li et al., 1981a, Lin et al., 1982
# [1] = Solubility in DMSO (noted in NMR work); conditions: 13C NMR spectra not obtainable
# P. falciparum = test: In vitro activity against P. falciparum (both clones, D-6 and W-2); format: cell-based, Plasmodium falciparum; conditions: for Resistance Index: IC50 (W2)/IC50 (D6) ratio
# Procedure: (§1) In vitro activity against P. falciparum was determined using a modification of the semiautomated microdilution technique of Desjardins et al. (1979) and Milhous et al. (1985). Two P. falciparum malaria parasite clones, designated as Sierra Leone (D-6) and Indochina (W-2), are used in susceptibility testing. The former is resistant to mefloquine, and the latter to CQ, pyrimethamine, sulfadoxine, and quinine. Test compounds are dissolved in dimethylsulfoxide, and solutions serially diluted with culture media. Erythrocytes with 0.25 to 0.5% parasitemia are added to each well of a 96-well microdilution plate to give a final hematocrit of 1.5%. […] Results are reported as […] (ng/mL) values. For a complete description of this assay, see Milhous et al. (1985) and Lin et al. (1987).
# [2] = tested on: P. berghei (strain KBG 173); test: In vivo activity against P. berghei in mice, single subcutaneous dose 3 days after infection; design: species or system Plasmodium berghei; mice; conditions: for P. berghei T-C: single dose 3 days post infection, n = 5
# Procedure: In vivo activity against P. berghei was obtained against a drug-sensitive strain of P. berghei (strain KBG 173) (Osdene et al., 1967). Each test compound is administered subcutaneous to five male mice per dilution in a single subcutaneous dose 3 days after infection. Results are expressed in T-C values which indicate the mean survival time of the treated mice beyond that of the control animals; untreated mice survive on average 6.2 days. Compounds are classified as active (A) when the mean survival time of the treated mice is twice that of the controls (>6.2 days), and curative (C) when one or more test animals live 60 days post-infection. Deaths from 0-2 days post-treatment are attributed to toxicity (T).
# [3] = tested on: P. falciparum clone D-6 (Sierra Leone); format: cell-based, Plasmodium falciparum; conditions: D-6 clone (resistant to mefloquine)
# Procedure: as §1
# [4] = tested on: P. falciparum clone W-2 (Indochina); format: cell-based, Plasmodium falciparum
# Procedure: as §1
molecule,measurement,setting,value
"Clc1ccc2c(NN3CCN(Nc4ccnc5cc(Cl)ccc45)CC3)ccnc2c1 [1,4-bis(7-chloro-4-quinolylamino)piperazine]","activity against P. berghei in mice, compared with CQ","P. berghei; mice, Singh et al., 1971",significantly more effective than is CQ against P. berghei in mice
same,activity against malaria / CQ-resistant malaria (in words),CQ-resistant malaria,active against malaria
"Clc1ccc2c(NCCNc3ccnc4cc(Cl)ccc34)ccnc2c1 [Compound 1, N^1 N^2, -Bis(7-chloroquinolin-4-y1)ethane-1,2-diamine]",solubility in DMSO,[1],low solubilities in DMSO
same,in vitro activity against P. falciparum (in words),P. falciparum,approximately an order of magnitude less potent in vitro
same,Resistance Index,P. falciparum,1.6
same,antimalarial activity (in words),"P. falciparum; general statement, refers to Table I",antimalarial activity
same,in vivo activity against P. berghei (in words),[2],without activity in vivo
same,P. berghei T-C,[2]; 40 mg/kg s.c.,0.0 days
same,P. berghei T-C,[2]; 160 mg/kg s.c.,0.4 days
same,P. berghei T-C,[2]; 640 mg/kg s.c.,1.4 days
same,P. falciparum IC50 (nM) D-6,[3],17.3 nM
same,P. falciparum IC50 (nM) W-2,[4],27.0 nM
"Clc1ccc2c(N3CCN(CCCN4CCN(c5ccnc6cc(Cl)ccc56)CC4)CC3)ccnc2c1 [PQ, piperaquine]",Resistance Index,P. falciparum,1.9
same,P. falciparum IC50 (nM) D-6,[3],8.3 nM
same,P. falciparum IC50 (nM) W-2,[4],16.1 nM
same,duration of action,CQ-resistant malaria,longer duration of action
same,toxicity,CQ-resistant malaria,less toxicity when compared to CQ
same,activity against malaria / CQ-resistant malaria (in words),CQ-resistant malaria,active against malaria; also recorded: very effective against CQ-resistant malaria in China
CCN(CC)Cc1cc(Nc2ccnc3cc(Cl)ccc23)ccc1O [amodiaquine],activity against malaria / CQ-resistant malaria (in words),CQ-resistant malaria,active to various extents against CQ-resistant malaria
OC(CN1CCN(c2ccnc3cc(Cl)ccc23)CC1)CN1CCN(c2ccnc3cc(Cl)ccc23)CC1 [hydroxypiperaquine],duration of action,CQ-resistant malaria,longer duration of action
same,toxicity,CQ-resistant malaria,less toxicity when compared to CQ
same,activity against malaria / CQ-resistant malaria (in words),CQ-resistant malaria,active against malaria; also recorded: very effective against CQ-resistant malaria in China
OC(c1cc(C(F)(F)F)nc2c(C(F)(F)F)cccc12)C1CCCCN1 (stereo not drawn) [mefloquine],activity against malaria / CQ-resistant malaria (in words),CQ-resistant malaria,active to various extents against CQ-resistant malaria
C=C[C@H]1C[N@@]2CC[C@H]1C[C@H]2[C@H](O)c1ccnc2ccc(OC)cc12 [quinine],activity against malaria / CQ-resistant malaria (in words),CQ-resistant malaria,active to various extents against CQ-resistant malaria
CCN(CC)Cc1cc(Nc2ccnc3cc(Cl)ccc23)ccc1OC(=O)CCC(=O)Oc1ccc(Nc2ccnc3cc(Cl)ccc23)cc1CN(CC)CC [succinic acid diester of amodiaquine],activity against malaria / CQ-resistant malaria (in words),CQ-resistant malaria,inactive against malaria
dichloroquinazine,resistance of P. berghei,"P. berghei; CQ-resistant strain of P. berghei, Warhurst, 1966","Resistance to dichloroquinazine, however, is noted for a CQ-resistant strain of P. berghei"
same,activity against malaria / CQ-resistant malaria (in words),CQ-resistant malaria,active against CQ-resistant falciparum malaria
